Reference: patent US20220119354A1, “DIAMINO-SUBSTITUTED PYRIDINES AND PYRIMIDINES AS HERBICIDES” (FMC Corporation, priority 2019, published 2022)

Assays:
Assay type in all cases: in vivo
[1] = tested on: barnyardgrass (Echinochloa crus-galli); assay: Test A preemergence, barnyardgrass; settings: 0 to 100 scale, 0 is no effect, 100 is complete control
In short: (§1)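 Visual injury scores (0 no effect to 100 complete control) were assigned about 10 d after treatment by comparison with untreated controls. Test chemicals, formulated in a surfactant-containing non-phytotoxic solvent, were applied to soil at planting or to plants at the one- to two-leaf stage.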

kochia (Kochia scoparia) [2] = assay: Test A preemergence, kochia; settings: 0 to 100 scale, 0 is no effect, 100 is complete control
In short: as §1

[3] = tested on: ragweed (common ragweed, Ambrosia elatior); assay: Test A preemergence, ragweed; settings: 0 to 100 scale, 0 is no effect, 100 is complete control
In short: as §1

[4] = tested on: ryegrass, Italian (Lolium multiflorum); assay: Test A preemergence, Italian ryegrass; settings: 0 to 100 scale, 0 is no effect, 100 is complete control
In short: as §1

[5] = tested on: foxtail, giant (Setaria faberii); assay: Test A preemergence, giant foxtail; settings: 0 to 100 scale, 0 is no effect, 100 is complete control
In short: as §1

[6] = tested on: pigweed (Amaranthus retroflexus); assay: Test A preemergence, pigweed; settings: 0 to 100 scale, 0 is no effect, 100 is complete control
In short: as §1

[7] = tested on: barnyardgrass (Echinochloa crus-galli); assay: Test A postemergence, barnyardgrass; settings: 0 to 100 scale, 0 no effect, 100 complete control
In short: as §1

kochia (Kochia scoparia) [8] = assay: Test A postemergence, kochia; settings: 0 to 100 scale, 0 no effect, 100 complete control
In short: as §1

[9] = tested on: ragweed (common ragweed, Ambrosia elatior); assay: Test A postemergence, ragweed; settings: 0 to 100 scale, 0 no effect, 100 complete control
In short: as §1

[10] = tested on: ryegrass, Italian (Lolium multiflorum); assay: Test A postemergence, Italian ryegrass; settings: 0 to 100 scale, 0 no effect, 100 complete control
In short: as §1

[11] = tested on: foxtail, giant (Setaria faberii); assay: Test A postemergence, giant foxtail; settings: 0 to 100 scale, 0 no effect, 100 complete control
In short: as §1

[12] = tested on: pigweed (Amaranthus retroflexus); assay: Test A postemergence, pigweed; settings: 0 to 100 scale, 0 no effect, 100 complete control
In short: as §1

[13] = tested on: wheat (Triticum aestivum); assay: Test A postemergence, wheat; settings: 0 to 100 scale, 0 no effect, 100 complete control
In short: as §1

corn (Zea mays) = assay: Test A postemergence, corn; settings: 0 to 100 scale, 0 no effect, 100 complete control
In short: as §1

[14] = tested on: blackgrass (Alopecurus myosuroides); assay: Test A postemergence, blackgrass; settings: 0 to 100 scale, 0 no effect, 100 complete control
In short: as §1

[15] = tested on: galium (catchweed bedstraw, Galium aparine); assay: Test A postemergence, galium; settings: 0 to 100 scale, 0 no effect, 100 complete control
In short: as §1

rice (Oryza sativa) = assay: Test B flooded paddy test, rice; settings: Flood, 250 g ai/ha, applied to paddy water, 2-leaf stage, visual evaluation after 13 to 15 d
In short: (§2)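 Application was made into paddy water of pots flooded 3 cm deep at treatment, with seedlings at the 2-leaf stage. That flood level was kept throughout, and plants stayed under glass 13 to 15 d before visual assessment on a 0–100 control scale.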

[16] = tested on: sedge, umbrella (small-flower umbrella sedge, Cyperus difformis); assay: Test B flooded paddy test, umbrella sedge; settings: Flood, 250 g ai/ha, applied to paddy water, 2-leaf stage, visual evaluation after 13 to 15 d
In short: as §2

[17] = tested on: ducksalad (Heteranthera limosa); assay: Test B flooded paddy test, ducksalad; settings: Flood, 250 g ai/ha, applied to paddy water, 2-leaf stage, visual evaluation after 13 to 15 d
In short: as §2

[18] = tested on: barnyardgrass (Echinochloa crus-galli); assay: Test B flooded paddy test, barnyardgrass; settings: Flood, 250 g ai/ha, applied to paddy water, 2-leaf stage, visual evaluation after 13 to 15 d
In short: as §2

SMILES: C[C@@H](Nc1nc(N)c(C(F)(F)F)c(C(F)(F)F)n1)c1cc2ccccc2o1 [Compound 65]
- Barnyardgrass plant response rating ([1]; 125 g ai/ha): 0
- Barnyardgrass plant response rating ([1]; 500 g ai/ha): 0
- Kochia plant response rating (kochia (Kochia scoparia) [2]; 125 g ai/ha): 0
- Kochia plant response rating (kochia (Kochia scoparia) [2]; 500 g ai/ha): 0
- Ragweed plant response rating ([3]; 125 g ai/ha): 0
- Ragweed plant response rating ([3]; 500 g ai/ha): 40
- Ryegrass, Italian plant response rating ([4]; 125 g ai/ha): 0
- Ryegrass, Italian plant response rating ([4]; 500 g ai/ha): 0
- Foxtail, Giant plant response rating ([5]; 125 g ai/ha): 0
- Foxtail, Giant plant response rating ([5]; 500 g ai/ha): 0
- Pigweed plant response rating ([6]; 125 g ai/ha): 0
- Pigweed plant response rating ([6]; 500 g ai/ha): 0
- Plant response rating, Barnyardgrass ([7]; 125 g ai/ha): 0
- Plant response rating, Barnyardgrass ([7]; 500 g ai/ha): 0
- Plant response rating, Kochia (kochia (Kochia scoparia) [8]; 125 g ai/ha): 0
- Plant response rating, Kochia (kochia (Kochia scoparia) [8]; 500 g ai/ha): 60
- Plant response rating, Ragweed ([9]; 125 g ai/ha): 0
- Plant response rating, Ragweed ([9]; 500 g ai/ha): 0
- Plant response rating, Ryegrass, Italian ([10]; 125 g ai/ha): 0
- Plant response rating, Ryegrass, Italian ([10]; 500 g ai/ha): 0
- Plant response rating, Foxtail, Giant ([11]; 125 g ai/ha): 0
- Plant response rating, Foxtail, Giant ([11]; 500 g ai/ha): 0
- Plant response rating, Pigweed ([12]; 125 g ai/ha): 0
- Plant response rating, Pigweed ([12]; 500 g ai/ha): 30
- Plant response rating, Wheat ([13]; 125 g ai/ha): 30
- Plant response rating, Wheat ([13]; 500 g ai/ha): 30
- Plant response rating, Corn (corn (Zea mays); 125 g ai/ha): 0
- Plant response rating, Corn (corn (Zea mays); 500 g ai/ha): 0
- Plant response rating, Blackgrass ([14]; 125 g ai/ha): 0
- Plant response rating, Blackgrass ([14]; 500 g ai/ha): 0
- Plant response rating, Galium ([15]; 125 g ai/ha): 0
- Plant response rating, Galium ([15]; 500 g ai/ha): 0
- Plant response rating, Rice (0 to 100 scale, 0 is no effect, 100 is complete control) (rice (Oryza sativa)): 0
- Plant response rating, Sedge, Umbrella (0 to 100 scale, 0 is no effect, 100 is complete control) [16]: 0
- Plant response rating, Ducksalad (0 to 100 scale, 0 is no effect, 100 is complete control) [17]: 0
- Plant response rating, Barnyardgrass (0 to 100 scale, 0 is no effect, 100 is complete control) [18]: 0

SMILES: C[C@H](Nc1nc(N)c(C(F)(F)F)c(C(F)(F)F)n1)c1cc2ccccc2o1 [Compound 66]
- Barnyardgrass plant response rating ([1]; 125 g ai/ha): 0
- Barnyardgrass plant response rating ([1]; 500 g ai/ha): 0
- Kochia plant response rating (kochia (Kochia scoparia) [2]; 125 g ai/ha): 0
- Kochia plant response rating (kochia (Kochia scoparia) [2]; 500 g ai/ha): 0
- Ragweed plant response rating ([3]; 125 g ai/ha): 0
- Ragweed plant response rating ([3]; 500 g ai/ha): 0
- Ryegrass, Italian plant response rating ([4]; 125 g ai/ha): 0
- Ryegrass, Italian plant response rating ([4]; 500 g ai/ha): 0
- Foxtail, Giant plant response rating ([5]; 125 g ai/ha): 0
- Foxtail, Giant plant response rating ([5]; 500 g ai/ha): 0
- Pigweed plant response rating ([6]; 125 g ai/ha): 0
- Pigweed plant response rating ([6]; 500 g ai/ha): 0
- Plant response rating, Barnyardgrass ([7]; 125 g ai/ha): 0
- Plant response rating, Barnyardgrass ([7]; 500 g ai/ha): 30
- Plant response rating, Kochia (kochia (Kochia scoparia) [8]; 125 g ai/ha): 20
- Plant response rating, Kochia (kochia (Kochia scoparia) [8]; 500 g ai/ha): 90
- Plant response rating, Ragweed ([9]; 125 g ai/ha): 0
- Plant response rating, Ragweed ([9]; 500 g ai/ha): 20
- Plant response rating, Ryegrass, Italian ([10]; 125 g ai/ha): 0
- Plant response rating, Ryegrass, Italian ([10]; 500 g ai/ha): 0
- Plant response rating, Foxtail, Giant ([11]; 125 g ai/ha): 0
- Plant response rating, Foxtail, Giant ([11]; 500 g ai/ha): 0
- Plant response rating, Pigweed ([12]; 125 g ai/ha): 30
- Plant response rating, Pigweed ([12]; 500 g ai/ha): 100
- Plant response rating, Wheat ([13]; 125 g ai/ha): 0
- Plant response rating, Wheat ([13]; 500 g ai/ha): 0
- Plant response rating, Corn (corn (Zea mays); 125 g ai/ha): 0
- Plant response rating, Corn (corn (Zea mays); 500 g ai/ha): 20
- Plant response rating, Blackgrass ([14]; 125 g ai/ha): 0
- Plant response rating, Blackgrass ([14]; 500 g ai/ha): 30
- Plant response rating, Galium ([15]; 125 g ai/ha): 30
- Plant response rating, Galium ([15]; 500 g ai/ha): 40
- Plant response rating, Rice (0 to 100 scale, 0 is no effect, 100 is complete control) (rice (Oryza sativa)): 0
- Plant response rating, Sedge, Umbrella (0 to 100 scale, 0 is no effect, 100 is complete control) [16]: 0
- Plant response rating, Ducksalad (0 to 100 scale, 0 is no effect, 100 is complete control) [17]: 0
- Plant response rating, Barnyardgrass (0 to 100 scale, 0 is no effect, 100 is complete control) [18]: 0
